Assay results taken from patent US7449477B2, “7-phenyl-isoquinoline-5-sulfonylamino derivatives as inhibitors of akt (protein kinase B)” (Eli Lilly and Company, priority 2003, dated 2008).
Where a name gives a salt, the structure may show the parent alone.

Target: T1, active human Akt1 (Homo sapiens, UniProt P31749)
T1 construct: Active human recombinant Akt1 (full-length) purified from Sf9 insect cells; purchased Upstate Biotechnology, Inc. 14-276; host or cells: Sf9 insect cells
Test: Akt1 Phosphorylation Assay (phosphocellulose filter-binding, 33P-Crosstide)
Format: biochemical
Conditions: active human recombinant Akt1 (full-length) 10 nM; 12.5 μM Crosstide; 20 μM ATP; 30 minutes at room temperature
Experimental: Akt1 Phosphorylation Assay
The assay described measures the phosphorylation of Crosstide by active human Akt1 and other Akt isoforms. Crosstide contains a consensus sequence derived from Akt substrates GSK3b and forkhead transcription factors (FKs). The ^33P-labeled Crosstide substrate is captured by phosphocellulose membrane filter plates.
Active human recombinant Akt1 (full-length) purified from Sf9 insect cells is from Upstate Biotechnology, Inc. (Cat. #14-276, 405 μg/ml). Crosstide substrate, NH2-GRPRTSSFAEG-COOH (M.W.1164) is purchased from Multiple Peptide System (Cat. # L59/GR145-153).
Solution (A): 20% DMSO (dimethylsulphoxide) or Compound in 20% DMSO; Solution (B): Assay Buffer Mix: 31.25 μM Crosstide, 37.5 mM MgCl2, 87.5 mM HEPES, pH 7.3, 50 μM ATP γ-^33P-ATP, 0.05 μCi/μl; Solution (C): Akt Kinase Mix: 31.25 mM HEPES, pH 7.3; 1 mM DTT, 25 nM UBI Akt1.
Procedure for Phosphocellulose Filter-Binding Assay
Ten μl of Solution (A) are first mixed with 20 μl Solution (B). The enzymatic reaction is initiated by adding 20 μl Solution (C) to the mixture. (Final concentration or amount in a 50-μl reaction mix: 4% DMSO or various compound concentration in 4% DMSO; 12.5 μM Crosstide; 15 mM MgCl2; 35 mM HEPES, pH7.3; 20 μM ATP; 1 μCi γ-^33P-ATP; 0.4 mM DTT; 10 nM UBI Akt1.) The reactions are performed in 96-well microtiter plates.
After 30 minutes at room temperature, the reaction is terminated by adding 80 μl of 10% H3PO4. An aliquot of 100 μl from each well is transferred to the phosphocellulose filter plate (Millipore MultiScreen, Catalog #MAPHN0B50). After 30 minutes, the reaction mix is filtered with a Millipore manifold following by 3 washes with 0.5% H3PO4. The filter is then vacuum-dried and the plate is fitted onto a Packard carrier. 100 μl/well Microscint20 are added and the contents are counted in a Packard Top Count.

T1 sequence (P31749 whole entry): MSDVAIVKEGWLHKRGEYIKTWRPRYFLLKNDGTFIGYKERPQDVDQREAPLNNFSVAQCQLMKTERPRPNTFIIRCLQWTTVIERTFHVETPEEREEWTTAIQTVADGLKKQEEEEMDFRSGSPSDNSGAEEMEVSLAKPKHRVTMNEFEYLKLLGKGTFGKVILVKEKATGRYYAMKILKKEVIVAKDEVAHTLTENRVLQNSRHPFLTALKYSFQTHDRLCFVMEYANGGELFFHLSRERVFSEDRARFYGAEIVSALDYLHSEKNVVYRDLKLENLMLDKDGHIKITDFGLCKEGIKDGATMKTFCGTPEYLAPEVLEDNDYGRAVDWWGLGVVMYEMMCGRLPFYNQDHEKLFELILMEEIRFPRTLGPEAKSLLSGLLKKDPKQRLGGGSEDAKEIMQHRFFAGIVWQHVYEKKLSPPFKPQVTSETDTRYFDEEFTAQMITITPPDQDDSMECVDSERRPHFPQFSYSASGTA

Row | SMILES | IC50
1 | O=[N+]([O-])c1ccc(CCCNCCNS(=O)(=O)c2cc(-c3ccc(O)cc3)cc3cnccc23)cc1 [Example 98, 7-(4-hydroxy-phenyl)-isoquinoline-5-sulfonic acid {2-[3-(4-nitro-phenyl)-propylamino]-ethyl}-amide, dihydrochloride salt] | ≤ 2 µM
2 | N#Cc1ccc(C(O)C(O)CNCCNS(=O)(=O)c2cc(-c3ccccc3)cc3cnccc23)cc1 (stereo not shown) [Example 112, 7-Phenyl-isoquinoline-5-sulfonic acid {2-[3-(4-cyano-phenyl)-2,3-dihydroxy-propylamino]-ethyl}-amide, dihydrochloride salt] | ≤ 2 µM
3 | O=S(=O)(NCCNCCCc1ccccc1N1C=CC=NC=C1)c1cc(-c2ccccc2)cc2cnccc12 [Example 7, 7-Phenyl-isoquinoline-5-sulfonic acid {2-[3-(2-[1,4]diazepin-1-yl-phenyl)-propylamino]-ethyl}-amide, tetrahydrochloride salt] | ≤ 2 µM
4 | CCc1cc([N+](=O)[O-])ccc1CCCNCCNS(=O)(=O)c1cc(-c2ccccc2)cc2cnccc12 [Example 103, 7-Phenyl-isoquinoline-5-sulfonic acid {2-[3-(2-ethyl-4-nitro-phenyl)-propylamino]-ethyl}-amide, dihydrochloride salt] | ≤ 2 µM
5 | N#Cc1ccc(CCCNCCNS(=O)(=O)c2cc(-c3ccccc3)cc3cnccc23)cc1C(F)(F)F [Example 67, 7-Phenyl-isoquinoline-5-sulfonic acid {2-[3-(4-cyano-3-trifluoromethylphenyl)-propylamino]-ethyl}-amide, dihydrochloride salt] | ≤ 2 µM
6 | O=S(=O)(NCCNCCCc1ccc(O)cc1)c1cc(-c2ccccc2)cc2cnccc12 [Example 19, 7-Phenyl-isoquinoline-5-sulfonic acid {2-[3-(4-hydroxyphenyl)-propylamino]-ethyl}-amide, dihydrochloride salt] | ≤ 2 µM
7 | O=S(=O)(NCCNCCCc1cccc(O)c1)c1cc(-c2ccc(O)cc2)cc2cnccc12 [Example 109, 7-(4-Hydroxy-phenyl)-isoquinoline-5-sulfonic acid {2-[3-(3-hydroxy-phenyl)-propylamino]-ethyl}-amide] | ≤ 2 µM
8 | O=S(=O)(NCCNCC(O)C(O)c1ccc(S(=O)(=O)C(F)(F)F)cc1)c1cc(-c2ccccc2)cc2cnccc12 (stereo not shown) [Example 113, 7-Phenyl-isoquinoline-5-sulfonic acid {2-[2,3-dihydroxy-3-(4-trifuoromethanesulfonyl-phenyl)-propylamino]-ethyl}-amide, dihydrochloride salt] | ≤ 2 µM
9 | O=[N+]([O-])c1ccc(CCCNCCNS(=O)(=O)c2cc(-c3ccccc3)cc3cnccc23)cc1O [Example 105, 7-Phenyl-isoquinoline-5-sulfonic acid {2-[3-(3-hydroxy-4-nitro-phenyl)-propylamino]-ethyl}-amide, dihydrochloride salt] | ≤ 2 µM
10 | O=[N+]([O-])c1ccc(CCCNCCNS(=O)(=O)c2cc(-c3ccccc3)cc3cnccc23)c(Cl)c1 [Example 38, 7-Phenyl-isoquinoline-5-sulfonic acid {2-[3-(2-chloro-4-nitrophenyl)-propylamino]-ethyl}-amide, dihydrochloride salt] | ≤ 2 µM
11 | O=S(=O)(NCCNCCCc1ccc(S(=O)(=O)C(F)(F)F)cc1)c1cc(-c2ccccc2)cc2cnccc12 [Example 102, 7-Phenyl-isoquinoline-5-sulfonic acid {2-[3-(4-trifluoromethanesulfonyl-phenyl)-propylamino]-ethyl}-amide, dihydrochloride salt] | ≤ 2 µM
12 | O=[N+]([O-])c1ccc(CCCNCCNS(=O)(=O)c2cc(-c3cccc(O)c3)cc3cnccc23)cc1 [Example 99, 7-(3-hydroxy-phenyl)-isoquinoline-5-sulfonic acid {2-[3-(4-nitro-phenyl)-propylamino]-ethyl}-amide, dihydrochloride salt] | ≤ 2 µM
13 | CS(=O)(=O)c1ccc(C(O)CCNCCNS(=O)(=O)c2cc(-c3ccccc3)cc3cnccc23)cc1 (stereo not shown) [Example 79, 7-Phenyl-isoquinoline-5-sulfonic acid [2-(3-hydroxy-3-(4-methanesulfonyl-phenyl)-propylamino)-ethyl]-amide, dihydrochloride salt] | ≤ 2 µM
14 | O=S(=O)(NCCNCCCc1ccccc1N1CCNCC1)c1cc(-c2ccccc2)cc2cnccc12 [Example 11, 7-Phenyl-isoquinoline-5-sulfonic acid {2-[3-(2-(piperazin-1-yl-phenyl)-propylamino]-ethyl}-amide, tetrahydrochloride salt] | ≤ 2 µM

Continued, values first:

Row | IC50 | SMILES
15 | ≤ 2 µM | N#Cc1ccc(CCCNCCNS(=O)(=O)c2cc(-c3ccccc3)cc3cnccc23)cc1O [Example 106, 7-Phenyl-isoquinoline-5-sulfonic acid {2-[3-(4-cyano-3-hydroxy-phenyl)-propylamino]-ethyl}-amide, bis-trifluoroacetate salt]
16 | ≤ 2 µM | O=[N+]([O-])c1ccc(CCCNCCNS(=O)(=O)c2cc(-c3ccccc3)cc3cnccc23)c(CCO)c1 [Example 58, 7-Phenyl-isoquinoline-5-sulfonic acid {2-[3-(2-(2-hydroxy-ethyl)-4-nitro-phenyl)-propylamino]-ethyl}-amide, dihydrochloride salt]
17 | ≤ 2 µM | O=S(=O)(NCCNCCCc1ccc(F)cc1-c1ccccc1)c1cc(-c2ccccc2)cc2cnccc12 [Example 36, 7-Phenyl-isoquinoline-5-sulfonic acid {2-[3-(5-fluoro-biphenyl-2-yl)-propylamino]-ethyl}-amide, dihydrochloride salt]
18 | ≤ 2 µM | Nc1cccc(-c2cc(S(=O)(=O)NCCNCCCc3ccc([N+](=O)[O-])cc3)c3ccncc3c2)c1 [Example 92, 7-(3-aminophenyl)-isoquinoline-5-sulfonic acid [2-(3-(4-nitrophenyl)-propylamino)-ethyl]-amide, trihydrochloride salt]
19 | ≤ 2 µM | O=[N+]([O-])c1cccc(CCCNCCNS(=O)(=O)c2cc(-c3ccccc3)cc3cnccc23)c1 [Example 101, 7-Phenyl-isoquinoline-5-sulfonic acid {2-[3-(3-nitro-phenyl)-propylamino]-ethyl}-amide, dihydrochloride salt]
20 | ≤ 2 µM | COC(=O)c1cc([N+](=O)[O-])ccc1CCCNCCNS(=O)(=O)c1cc(-c2ccccc2)cc2cnccc12 [Example 62, 7-Phenyl-isoquinoline-5-sulfonic acid {2-[3-(2-methoxycarbonyl-4-nitrophenyl)-propylamino]-ethyl}-amide, dihydrochloride salt]
21 | ≤ 2 µM | O=S1(=O)CCN(c2cc(Cl)ccc2CCCNCCNS(=O)(=O)c2cc(-c3ccccc3)cc3cnccc23)CC1 [Example 52, 7-Phenyl-isoquinoline-5-sulfonic acid {2-[3-(4-chloro-2-(1,1-dioxo-thiomorpholin-4-yl)-phenyl)-propylamino]-ethyl}-amide, trihydrochloride salt]
22 | ≤ 2 µM | O=[N+]([O-])c1ccc(CCCNCCNS(=O)(=O)c2cc(-c3cccc(F)c3)cc3cnccc23)cc1 [Example 93, 7-(3-fluorophenyl)-isoquinoline-5-sulfonic acid [2-(3-(4-nitrophenyl)-propylamino)-ethyl]-amide]
23 | ≤ 2 µM | O=[N+]([O-])c1ccc([C@H](O)CCNCCNS(=O)(=O)c2cc(-c3ccccc3)cc3cnccc23)cc1 [Example 81, (R)-7-Phenyl-isoquinoline-5-sulfonic acid [2-(3-hydroxy-3-(4-nitrophenyl)-propylamino)-ethyl]-amide, mesylate salt]
24 | ≤ 2 µM | O=S(=O)(NCCNCCCc1ccc(Cl)cc1OC1CCNC1)c1cc(-c2ccccc2)cc2cnccc12 (stereo not shown) [Example 56, 7-Phenyl-isoquinoline-5-sulfonic acid {2-[3-(4-chloro-2-(pyrrolidin-3-yl)oxy-phenyl)-propylamino]-ethyl}-amide, trihydrochloride salt]
25 | ≤ 2 µM | CS(=O)(=O)c1ccc(CCCNCCNS(=O)(=O)c2cc(-c3ccccc3)cc3cnccc23)cc1 [Example 100, 7-Phenyl-isoquinoline-5-sulfonic acid {2-[3-(4-methanesulfonyl-phenyl)-propylamino]-ethyl}-amide, dihydrochloride salt]
